IC50 data for five compounds are collected here from patent US20100041722A1, “ORGANIC COMPOUNDS” (priority 2006, published 2010).

In test [1] the target is T1, aldosterone synthase (CYP11B2) (Homo sapiens, UniProt P19099).
T1 construct: host or cells: NCI-H295R human adrenocortical carcinoma cells
T1 sequence (P19099 25-503): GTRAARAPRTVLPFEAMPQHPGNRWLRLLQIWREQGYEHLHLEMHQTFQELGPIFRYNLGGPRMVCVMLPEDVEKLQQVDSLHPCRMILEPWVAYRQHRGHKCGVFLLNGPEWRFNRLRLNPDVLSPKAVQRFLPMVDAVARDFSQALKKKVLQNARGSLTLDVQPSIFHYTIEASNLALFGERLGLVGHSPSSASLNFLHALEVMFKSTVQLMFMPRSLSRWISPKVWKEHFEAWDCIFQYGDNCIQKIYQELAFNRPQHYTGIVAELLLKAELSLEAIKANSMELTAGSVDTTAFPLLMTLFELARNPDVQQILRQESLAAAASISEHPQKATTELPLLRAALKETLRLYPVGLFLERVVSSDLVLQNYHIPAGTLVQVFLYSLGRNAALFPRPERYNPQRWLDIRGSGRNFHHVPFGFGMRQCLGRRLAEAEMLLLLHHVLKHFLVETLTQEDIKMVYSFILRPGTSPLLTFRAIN
The test is described as follows: in vitro aldosterone synthase inhibition: aldosterone production in Ang II-stimulated NCI-H295R cells. The class given is cell-based. To be noted: Table 1, read-out: AS IC50. From the text:
Human adrenocortical carcinoma NCl-H295R cell line is obtained from American Type Culture Collection (Manassas, Va.). Insulin/transferrin/selenium (ITS)-A supplement (100×), DMEM/F-12, antibiotic/antimycotic (100×), and fetal calf serum (FCS) are purchased from Gibco (Grand Island, N.Y.). Anti-mouse PVT scintillation proximity assay (SPA) beads and NBS 96-well plates are obtained from Amersham (Piscataway, N.J.) and Corning (Acton, Mass.), respectively. Solid black 96-well flat bottom plates are purchased from Costar (Corning, N.Y.). Aldosterone and angiotensin (Ang II) are purchased from Sigma (St. Louis, Mo.). D-[1,2,6,7-^3H(N)]aldosterone was acquired from PerkinElmer (Boston, Mass.). Nu-serum was a product of BD Biosciences (Franklin Lakes, N.J.). The NADPH regenerating system, dibenzylfluorescein (DBF), and human aromatase supersomes® are obtained from Gentest (Woburn, Mass.).
For in vitro measurement of aldosterone activity, human adrenocortical carcinoma NCl-H295R cells are seeded in NBS 96-well plates at a density of 25,000 cells/well in 100 μl of a growth medium containing DMEM/F12 supplemented with 10% FCS, 2.5% Nu-serum, 1 μg ITS/ml, and 1× antibiotic/antimycotic. The medium is changed after culturing for 3 days at 37° C. under an atmosphere of 5% CO2/95% air. On the following day, cells are rinsed with 100 μl of DMEM/F12 and incubated with 100 μl of treatment medium containing 1 μM Ang II and a compound at different concentrations in quadruplicate wells at 37° C. for 24 hr. At the end of incubation, 50 μl of medium is withdrawn from each well for measurement of aldosterone production by an RIA using mouse anti-aldosterone monoclonal antibodies.
Measurement of aldosterone activity can also be performed using a 96-well plate format. Each test sample is incubated with 0.02 μCi of D-[1,2,6,7-^3H(N)]aldosterone and 0.3 μg of anti-aldosterone antibody in phosphate-buffered saline (PBS) containing 0.1% Triton X-100, 0.1% bovine serum albumin; and 12% glycerol in a total volume of 200 μl at room temperature for 1 hr. Anti-mouse PVT SPA beads (50 μl) are then added to each well and incubated overnight at room temperature prior to counting in a Microbeta plate counter. The amount of aldosterone in each sample is calculated by comparing with a standard curve generated using known quantities of the hormone.
Full concentration-response curves of the test compound are performed at least 3 times. The IC50 values are derived using a non-linear least squares curve-fitting program from Microsoft XLfit.

The target of test [2] is T2, CYP11B1 (steroid 11β-hydroxylase) (Homo sapiens, UniProt P15538).
T2 construct: Thus, the NCl-H295R cells have CYP11B1 (steroid 11 p-hydroxylase); host or cells: NCI-H295R human adrenocortical carcinoma cells
T2 sequence (P15538 25-503): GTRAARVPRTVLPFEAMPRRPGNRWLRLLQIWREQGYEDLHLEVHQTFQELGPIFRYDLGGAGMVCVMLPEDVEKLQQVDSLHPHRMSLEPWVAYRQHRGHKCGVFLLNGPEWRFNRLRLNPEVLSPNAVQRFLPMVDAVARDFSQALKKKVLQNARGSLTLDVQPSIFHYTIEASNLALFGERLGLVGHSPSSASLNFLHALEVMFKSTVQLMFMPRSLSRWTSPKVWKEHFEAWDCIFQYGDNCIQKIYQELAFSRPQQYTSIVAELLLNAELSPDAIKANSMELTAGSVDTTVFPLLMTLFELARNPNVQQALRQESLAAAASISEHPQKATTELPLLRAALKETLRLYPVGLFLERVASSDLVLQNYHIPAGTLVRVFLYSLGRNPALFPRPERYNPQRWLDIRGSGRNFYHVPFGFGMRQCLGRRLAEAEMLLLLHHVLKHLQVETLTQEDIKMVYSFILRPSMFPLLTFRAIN
The test is described as follows: in vitro CYP11B1 inhibition: steroid release from NCI-H295R cells. It counts as cell-based. To be noted: Table 1. From the text: The in vitro inhibitory activities for CYP11B1 can be determined by the following assay.
The cell line NCl-H295R was originally isolated from an adrenocortical carcinoma and has been characterized in the literature through the stimulable secretion of steroid hormones and the presence of the enymes essential for steroidogenesis. Thus, the NCl-H295R cells have CYP11B1 (steroid 11 p-hydroxylase). The cells show the physiological property of zonally undifferentiated human foetal adrenocortical cells which, however, have the capacity to produce the steroid hormones which are formed in the three, phenotypically distinguishable zones in the adult adrenal cortex. […]
The excretion of aldosterone, cortisol, corticosterone and estradiol/estrone into the culture medium can be detected and quantified by commercially available, specific monoclonal antibodies in radioimmunoassays in accordance with the manufacturer's instructions.
Inhibition of the release of certain steroids can be used as a measure of the respective enzyme inhibition by the added test compounds. The dose-dependent inhibition of enzymic activity by a compound is calculated by means of an inhibition plot which is characterized by an IC50.
The IC50 values for active test compounds are ascertained by a simple linear regression analysis in order to construct inhibition plots without data weighting. The inhibition plot is calculated by fting a 4-parameter logistic function to the raw data points using the least squares method. The equation of the 4-parameter logistic function is calculated as follows: Y=(d−a)/((1+(x/c)b))+a I where: a=minimum data level b=gradient I c=ICED d=maximum data level x=inhibitor concentration.

For orientation: IC50 means the concentration that gives 50% inhibition. As for `COC(=O)c1cn(C2Cc3ccccc3C2)cn1` [LDG688, 1-Indan-2-yl-1H-imidazole-4-carboxylic acid methyl ester], the concentration for half-maximal inhibition (IC50) was 0.009 µM in test [1] and 0.107 µM in test [2].
The like results for `COC(=O)c1cncn1C1CCc2ccccc2C1` (centres unmarked) [LDI154, 3-(1,2,3,4-Tetrahydro-naphthalen-2-yl)-3H-imidazole-4-carboxylic acid methyl ester] were, in that order, 0.006 µM and 0.042 µM.
In the case of `Cc1noc(-c2cncn2C2Cc3ccccc3C2)n1` [LDK260, 5-(3-Indan-2-yl-3H-imidazol-4-yl)-3-methyl-[1,2,4]oxadiazole], the results for the half-maximal inhibitory concentration (IC50) in test [1] and in test [2] were 0.095 µM and 0.725 µM, respectively.
In the case of `ON=Cc1cncn1C1Cc2ccccc2C1` [LDK909, 3-Indan-2-yl-3H-imidazole-4-carbaldehyde oxime], the IC50 in test [1] is 0.378 µM.
The same measure, in the same setting: the figure for `COC(=O)c1cncn1C1COc2ccccc2OC1` [LDS237, 3-(3,4-Dihydro-2H-benzo[b][1,4]dioxepin-3-yl)-3H-imidazole-4-carboxylic acid methyl ester] is 0.214 µM.
